Test results as given in ChEMBL document CHEMBL1130545, “Synthesis and antimicrobial activities of 3-N-substituted-4,5-bis(3-indolyl)oxazol-2-ones” (1997).

Experiments:
Format in all cases: functional
Bacillus cereus = assay: The compound was tested in vitro for antimicrobial activity against gram-positive bacteria Bacillus cereus (ATCC 14579) by conventional paper disk; 7-8
Prescottella equi [1] = assay: The compound was tested in vitro for antimicrobial activity against gram-positive bacteria Corynebacterium equi (IFO 3720) by conventional paper disk; 7-8
Streptomyces chartreusis [2] = assay: The compound was tested in vitro for antimicrobial activity against […] bacteria Streptomyces chartreusis (NRRL 11407) by conventional paper disk; 9-10
Streptomyces chartreusis [3] = assay: The compound was tested in vitro for antimicrobial activity against […] bacteria Streptomyces chartreusis (NRRL 11407) by conventional paper disk; 7-8
Enterococcus faecalis = assay: The compound was tested in vitro for antimicrobial activity against gram-positive bacteria Enterococcus faecalis (ATCC 11700) by conventional paper disk; 7-8
Prescottella equi [4] = assay: The compound was tested in vitro for antimicrobial activity against gram-positive bacteria Corynebacterium equi (IFO 3720) by conventional paper disk; 9-10

## CCCn1c(-c2c[nH]c3ccccc23)c(-c2c[nH]c3ccccc23)oc1=O
Bacillus cereus
  Inhibition zone: 7 mm
Prescottella equi [1]
  Inhibition zone: 7 mm
Streptomyces chartreusis [2]
  Inhibition zone: 9 mm

## O=c1oc(-c2c[nH]c3ccccc23)c(-c2c[nH]c3ccccc23)n1Cc1ccccc1
Bacillus cereus
  Inhibition zone: 7 mm
Prescottella equi [1]
  Inhibition zone: 7 mm
Streptomyces chartreusis [3]
  Inhibition zone: 7 mm

## C[C@H](C(=O)O)n1c(-c2c[nH]c3ccccc23)c(-c2c[nH]c3ccccc23)oc1=O
Bacillus cereus
  Inhibition zone: 7 mm
Prescottella equi [1]
  Inhibition zone: 7 mm
Enterococcus faecalis
  Inhibition zone: 7 mm
Streptomyces chartreusis [2]
  Inhibition zone: 9 mm

## C=CCn1c(-c2c[nH]c3ccccc23)c(-c2c[nH]c3ccccc23)oc1=O
Bacillus cereus
  Inhibition zone: 7 mm
Prescottella equi [4]
  Inhibition zone: 9 mm
Streptomyces chartreusis [2]
  Inhibition zone: 9 mm
